Test results published in patent US20020058049A1, “Stable ophthalmic preparation” (priority 2000, published 2002).

Tests used:
[1] = Percent unoprostone isopropyl absorbed by bottle (PP vs LDPE) at three storage temperatures; assay type: physicochemical
Experimental: (§1) 0.15 wt % unoprostone isopropyl ester (a typical prostaglandin analogue) solution in an isotonic solution containing mannitol and edetate disodium is prepared. The solution also contains 0.015 wt % benzalkonium chloride as a preservative. The solution is placed in a polypropylene bottle and a polyethylene bottle, which bottles have 7.5 ml void volume, and 5 ml of the solution is placed in each bottle. The bottles have air-tight caps. The polypropylene bottle is molded from REXENE PP23M2 polypropylene and the polyethylene bottle is produced from ALATHON 2025 […] polyethylene (LDPE), which is available from DuPont. The bottles are placed in controlled environment at 40° C. and ambient humidity, and the concentration of unoprostone is periodically measured using HPLC.
Example 1 is repeated except that three different temperatures are used to store the samples. As put forth in Table 3, the percent unoprostone isopropyl absorbed by polypropylene is much lower than LDPE. This is particularly significant in that the lower absorption at higher temperatures enables the preparation of the present invention to meet current FDA stability requirements without refrigeration.

[2] = Long-term stability of unoprostone in polypropylene bottles at 25° C., 40% relative humidity; assay type: physicochemical; conditions: PP bottle
Experimental: as §1
The unoprostone solution is placed in the polypropylene bottles, as described in Example 1, and placed in storage at 25° C. with 40% relative humidity. The stability over time of unoprostone in the polypropylene bottles is measured.

CCCCCCCC(=O)CC[C@@H]1[C@@H](C/C=C\CCCC(=O)OC(C)C)[C@@H](O)C[C@H]1O [Unoprostone, unoprostone isopropyl ester]
% Unoprostone Absorbed ([1]; LDPE bottle, 12 mo. at 5° C.): 3.11% | % Unoprostone Absorbed ([1]; LDPE bottle, 12 mo. at 25° C.): 4.76% | % Unoprostone Absorbed ([1]; LDPE bottle, 12 mo. at 30° C.): 5.70% | % Unoprostone Absorbed ([1]; PP bottle, 12 mo. at 5° C.): 0.00% | % Unoprostone Absorbed ([1]; PP bottle, 12 mo. at 25° C.): 0.98% | % Unoprostone Absorbed ([1]; PP bottle, 12 mo. at 30° C.): 1.98% | % Unoprostone Isopropyl (Active) ([2]; 3 mo.): 101.3% | % Unoprostone Isopropyl (Active) ([2]; 6 mo.): 101.3% | % Unoprostone Isopropyl (Active) ([2]; 9 mo.): 101.3% | % Unoprostone Isopropyl (Active) ([2]; 18 mo.): 101.3% | % Unoprostone Isopropyl (Active) ([2]; Initial): 101.3% | degradation in concentration over time ([2]; over eighteen months): no measurable degradation
